Measured values taken from patent EP0317053B1, “Trigramin- a platelet aggregation inhibiting polypeptide” (Temple University of the Commonwealth System of Higher …, priority 1987, dated 1989).
Where no end group is shown, it is not given here.

Legend:
GPIIb-GPIIIa complex = assay: Binding of 125I-trigramin to human platelets; conditions: both ligands
[1] = Hamster mesentery bleeding time during continuous intravenous infusion; format: in vivo, golden Syrian hamsters; conditions: 2 ng/kg/min; one hamster; positive control
Experimental: Female golden Syrian hamsters (90-150 g) were maintained on food and water ad libitum, but fasted overnight prior to their use in the present experiment. After the administration of anesthesia (65 mg/kg sodium pentobarbital, i.p.), the animals were shaved in preparation for surgery. The trachea was intubated with PE-100 polyethylene tubing to facilitate spontaneous breathing. Cannulation of the right femoral vein was performed to provide an intravenous route for supplemental anesthesia as well as for the administration of various control and experiment agents. A catheter was introduced into the right carotid artery for the continuous monitoring of arterial blood pressure, and a rectal temperature probe was inserted. […]
The shaved abdomen was opened by a mid-line incision and a portion of the small intestine was exteriorized and draped over a lucite pedestal. […] Bleeding was observed through Zeiss dissecting microscope (20 X) and bleeding time was recorded from the time of the cut until the cessation of bleeding by the formation of a hemostatic plug. Each animal was used as its own control with bleeding time determined both during the infusion of saline and the selected experimental agent. […] Four additional animals were infused with trigramin while arterial blood pressure was continuously monitored to determine if it had any direct effect on systemic blood pressure. […]

GQQHHLGGAKQAGDV
inhibition of the binding of ¹²⁵I-trigramin and of ¹²⁵I-fibrinogen to human platelets (GPIIb-GPIIIa complex): inhibited

CC#CCC(C)[C@H](O)/C=C/[C@@H]1[C@H]2C/C(=C/CCCC(=O)O)C[C@H]2C[C@H]1O (some centres unmarked) [Iloplrost]
time after the completion of the infusion until bleeding ceased [1]: approximately 9 minutes
